PMC5971061, “Differential Effects of Linkers on the Activity of Amphiphilic Tobramycin Antifungals” (Molecules : A Journal of Synthetic Chemistry and Natural …, 2018)
Values after ≈ are worked out from the molar mass of the structure shown. Values belong to the molecule of their own block, whether it stands above or below them.

Experiments:
Hemolytic activity assay = assay type: cell-based, murine; conditions: mouse, murine red blood cells (mRBCs), mRBCs, 37 °C 1 h, ± SDEV
Description: (§1) The hemolytic activity of compounds 3, 4, 7a, 7b, and 9 as well as the parent compound TOB was determined by using previously described methods with minor modifications. Murine whole blood (1 mL) was suspended in 4 mL of PBS and centrifuged at 1000 rpm for 10 min at room temperature to obtain murine red blood cells (mRBCs). The mRBCs were washed four times in PBS and resuspended in the same buffer to a final concentration of 10^7 erythrocytes/mL. Two-fold serial dilutions of compounds 3, 4, 7a, 7b, and 9 were prepared using 100 μL of PBS buffer in Eppendorf tubes followed by the addition of 100 μL of mRBC suspension that made the final concentration of compounds and mRBCs to be 0.48–62.5 μg/mL and 5 × 10^6 erythrocytes/mL, respectively. The tubes were incubated at 37 °C for 1 h. The tubes with PBS buffer (200 μL) and Triton X-100® (1% v/v, 2 μL) served as the negative (blank) and positive controls, respectively. The percentage of hemolysis was calculated using the following equation: % hemolysis = [(absorbance of sample) − (absorbance of blank)] × 100/(absorbance of positive control).

[1] = tested on: murine red blood cells (mRBCs); experiment: Hemolytic activity assay; assay type: cell-based; conditions: 62.5 μg/mL, mRBCs, 37 °C 1 h, ± SDEV
Description: as §1

[2] = tested on: C. albicans ATCC 90819(R) (strain D); experiment: MIC, broth microdilution (CLSI M27-A3), yeast strain D; assay type: cell-based; conditions: Candida albicans, ATCC90819; MIC-0, strain D, 35 °C 48 h
Description: (§2) The final concentrations of compounds 3, 4, 7a, 7b, 9, and 16, as well as that of TOB tested in this study ranged from 0.24–62.5 μg/mL. CAS was used as a positive control and the final concentrations tested for CAS ranged from 0.03–31.3 μg/mL. Briefly, overnight yeast cultures were grown in yeast peptone dextrose (YPD) broth and the cell density was adjusted to an OD600 of 0.12 (~1 × 10^6 CFU/mL) by using a spectrophotometer. Yeast cell suspensions were further diluted to achieve 1–5 × 10^3 CFU/mL in RPMI 1640 medium, and 100 μL of these yeast cells was added to 96-well microtiter plates containing RPMI 1640 medium and titrated compounds. Each test was performed in triplicate. The plates were incubated at 35 °C for 48 h.

[3] = tested on: C. neoformans clinical isolates CN1-3; experiment: MIC across C. neoformans clinical isolates CN1-3; assay type: cell-based, Cryptococcus neoformans
Description: as §2

[4] = tested on: C. albicans ATCC MYA-1003(R) (strain G); experiment: MIC, broth microdilution (CLSI M27-A3), yeast strain G; assay type: cell-based; conditions: Candida albicans; MIC-0, strain G, 35 °C 48 h
Description: as §2

[5] = tested on: Aspergillus nidulans ATCC 38163 (strain L); experiment: MIC, filamentous fungi (CLSI M38-A2), strain L; assay type: cell-based; conditions: Aspergillus nidulans, ATCC38163, 72 h, MIC-0, strain L, 35 °C 72 h; read-out: MIC
Description: (§3) The spores were harvested from sporulating cultures growing on potato dextrose agar (PDA) by filtration through sterile glass wool and enumerated by using a hemocytometer (Hausser Scientific, Horsham, PA, USA) to obtain the desired inoculum size. Two-fold serial dilutions of compounds 3, 4, 7a, 7b, 9, and 16, as well as CAS and TOB were made in sterile 96-well microtiter plates to obtain the final concentration range of 0.24–62.5 μg/mL for TOB and TOB derivatives as well as 0.03–31.3 μg/mL for CAS in the RPMI 1640 medium. The spore suspensions were added to the wells to afford a final concentration of 5 × 10^5 spores/mL. The plates were incubated at 35 °C for 72 h. […] Each test was performed in triplicate.

[6] = tested on: Candida glabrata clinical isolate CG3; experiment: MIC, broth microdilution (CLSI M27-A3), CG3; assay type: cell-based; conditions: Nakaseomyces glabratus; MIC-0, CG3, 35 °C 48 h
Description: as §2

[7] = tested on: C. albicans ATCC MYA-2876(S) (strain C); experiment: MIC, broth microdilution (CLSI M27-A3), yeast strain C; assay type: cell-based; conditions: Candida albicans; MIC-0, strain C, 35 °C 48 h
Description: as §2

[8] = tested on: Candida glabrata clinical isolate CG2; experiment: MIC, broth microdilution (CLSI M27-A3), CG2; assay type: cell-based; conditions: Nakaseomyces glabratus; MIC-0, CG2, 35 °C 48 h
Description: as §2

[9] = tested on: Candida parapsilosis ATCC 22019 (strain J); experiment: MIC, broth microdilution (CLSI M27-A3), yeast strain J; assay type: cell-based; conditions: Lodderomyces parapsilosis, ATCC22019; MIC-0, strain J, 35 °C 48 h
Description: as §2

[10] = tested on: Candida parapsilosis clinical isolate CP3; experiment: MIC, broth microdilution (CLSI M27-A3), CP3; assay type: cell-based; conditions: MIC-0, CP3, 35 °C 48 h
Description: as §2

[11] = tested on: Cryptococcus neoformans clinical isolate CN2; experiment: MIC, broth microdilution (CLSI M27-A3), CN2; assay type: cell-based; conditions: MIC-0, CN2, 35 °C 48 h
Description: as §2

[12] = tested on: Cryptococcus neoformans clinical isolate CN1; experiment: MIC, broth microdilution (CLSI M27-A3), CN1; assay type: cell-based; conditions: MIC-0, CN1, 35 °C 48 h
Description: as §2

[13] = tested on: Aspergillus flavus ATCC MYA-3631 (strain K); experiment: MIC, filamentous fungi (CLSI M38-A2), strain K; assay type: cell-based; conditions: Aspergillus flavus, 72 h, MIC-0, strain K, 35 °C 72 h; read-out: MIC
Description: as §3

[14] = tested on: Candida glabrata clinical isolate CG1; experiment: MIC, broth microdilution (CLSI M27-A3), CG1; assay type: cell-based; conditions: Nakaseomyces glabratus; MIC-0, CG1, 35 °C 48 h
Description: as §2

[15] = tested on: C. albicans ATCC MYA-2310(S) (strain E); experiment: MIC, broth microdilution (CLSI M27-A3), yeast strain E; assay type: cell-based; conditions: Candida albicans; MIC-0, strain E, 35 °C 48 h
Description: as §2

[16] = tested on: Candida parapsilosis clinical isolate CP2; experiment: MIC, broth microdilution (CLSI M27-A3), CP2; assay type: cell-based; conditions: Lodderomyces parapsilosis; MIC-0, CP2, 35 °C 48 h
Description: as §2

[17] = tested on: Candida krusei ATCC 6258 (strain I); experiment: MIC, broth microdilution (CLSI M27-A3), yeast strain I; assay type: cell-based; conditions: Pichia kudriavzevii, ATCC6258; MIC-0, strain I, 35 °C 48 h
Description: as §2

[18] = tested on: Candida parapsilosis clinical isolate CP1; experiment: MIC, broth microdilution (CLSI M27-A3), CP1; assay type: cell-based; conditions: Lodderomyces parapsilosis; MIC-0, CP1, 35 °C 48 h
Description: as §2

[19] = tested on: Candida glabrata ATCC 2001 (strain H); experiment: MIC, broth microdilution (CLSI M27-A3), yeast strain H; assay type: cell-based; conditions: Nakaseomyces glabratus, ATCC2001; MIC-0, strain H, 35 °C 48 h
Description: as §2

[20] = tested on: Cryptococcus neoformans clinical isolate CN3; experiment: MIC, broth microdilution (CLSI M27-A3), CN3; assay type: cell-based; conditions: MIC-0, CN3, 35 °C 48 h
Description: as §2

[21] = tested on: C. albicans ATCC MYA-1237(R) (strain F); experiment: MIC, broth microdilution (CLSI M27-A3), yeast strain F; assay type: cell-based; conditions: Candida albicans; MIC-0, strain F, 35 °C 48 h
Description: as §2

[22] = tested on: C. albicans ATCC 10231 (strain A); experiment: MIC, broth microdilution (CLSI M27-A3), yeast strain A; assay type: cell-based, Candida albicans; conditions: Candida albicans, ATCC10231; MIC-0, strain A, 35 °C 48 h
Description: as §2

[23] = tested on: C. albicans ATCC 64124 (strain B); experiment: MIC, broth microdilution (CLSI M27-A3), yeast strain B; assay type: cell-based; conditions: Candida albicans, ATCC64124; MIC-0, strain B, 35 °C 48 h
Description: as §2

[24] = tested on: Aspergillus terreus ATCC MYA-3633 (strain M); experiment: MIC, filamentous fungi (CLSI M38-A2), strain M; assay type: cell-based; conditions: MIC-0, strain M, 35 °C 72 h
Description: as §3

SMILES: C[C@@H]1[C@H](O)[C@@H](C)/C=C/C=C/C=C/C=C/C=C/C=C/C=C/[C@H](O[C@@H]2O[C@H](C)[C@@H](O)[C@H](N)[C@@H]2O)C[C@@H]2O[C@](O)(C[C@@H](O)C[C@@H](O)[C@H](O)CC[C@@H](O)C[C@@H](O)CC(=O)O[C@H]1C)C[C@H](O)[C@H]2C(=O)O [AmB, amphotericin B, reference compound]
- hemolysis at 1 h, 0.48 μg/mL (Hemolytic activity assay; 0.48 μg/mL): 0%
- hemolysis at 1 h, 0.975 μg/mL (Hemolytic activity assay; 0.975 μg/mL): 0%
- hemolysis at 1 h, 1.95 μg/mL (Hemolytic activity assay; 1.95 μg/mL): 1.7 ± 0.1%
- hemolysis at 1 h, 3.9 μg/mL (Hemolytic activity assay; 3.9 μg/mL): 3.4 ± 0.6%
- hemolysis at 1 h, 7.8 μg/mL (Hemolytic activity assay; 7.8 μg/mL): 3.7 ± 0.7%
- hemolysis at 1 h, 15.6 μg/mL (Hemolytic activity assay; 15.6 μg/mL): 31.9 ± 5.7%
- hemolysis at 1 h, 31.3 μg/mL (Hemolytic activity assay; 31.3 μg/mL): 80.2 ± 8.5%
- % hemolysis [1]: 90.3 ± 5.7%

- MIC [2]: 0.12 µg/mL (≈ 0.11 µM)
- MIC values [3]: low to no activity
- MIC [4]: 0.48 µg/mL (≈ 0.439 µM)
- MIC [5]: > 31.3 µg/mL
- MIC [6]: 0.975 µg/mL (≈ 0.892 µM)
- MIC [7]: 0.06 µg/mL (≈ 0.0549 µM)
- MIC [8]: 0.24 µg/mL (≈ 0.22 µM)
- MIC [9]: 1.95 µg/mL (≈ 1.78 µM)
- MIC [10]: 0.48 µg/mL (≈ 0.439 µM)
- MIC [11]: 31.3 µg/mL (≈ 28.6 µM)
- MIC [12]: 15.6 µg/mL (≈ 14.3 µM)
- MIC [13]: > 31.3 µg/mL
- MIC [14]: 1.95 µg/mL (≈ 1.78 µM)
- MIC [15]: 0.12 µg/mL (≈ 0.11 µM)
- MIC [16]: 0.48 µg/mL (≈ 0.439 µM)
- MIC [17]: 0.48 µg/mL (≈ 0.439 µM)
- MIC [18]: 0.48 µg/mL (≈ 0.439 µM)
- MIC [19]: 0.06 µg/mL (≈ 0.0549 µM)
- MIC [20]: 15.6 µg/mL (≈ 14.3 µM)
- MIC [21]: 0.24 µg/mL (≈ 0.22 µM)
- MIC [22]: 0.975 µg/mL (≈ 0.892 µM)
- MIC [23]: 0.24 µg/mL (≈ 0.22 µM)
- MIC [24]: > 31.3 µg/mL
SMILES: CC[C@H](C)C[C@H](C)CCCCCCCCC(=O)N[C@H]1C[C@@H](O)[C@@H](NCCN)NC(=O)[C@@H]2[C@@H](O)CCN2C(=O)[C@H]([C@H](O)CCN)NC(=O)[C@H]([C@H](O)[C@@H](O)c2ccc(O)cc2)NC(=O)[C@@H]2C[C@@H](O)CN2C(=O)[C@H]([C@@H](C)O)NC1=O [CAS, caspofungin, reference compound]
